# Experimental data taken from ChEMBL document CHEMBL5036339, “Synthesis and biological evaluation of indole-based peptidomimetics as antibacterial agents against Gram-positive bacteria” (Eur J Med Chem, 2021).
# The source made the active and inactive calls. The calls are words filed in the database; no cut-off is given here.
# Columns and labels:
# Staphylococcus aureus [1] = assay: Antibacterial activity against Staphylococcus aureus ATCC29213 assessed as reduction in bacterial growth; format: functional
# Staphylococcus aureus [2] = assay: Antibacterial activity against methicillin-resistant Staphylococcus aureus N315 assessed as reduction in bacterial growth; format: functional
# Staphylococcus aureus [3] = assay: Antibacterial activity against methicillin-resistant Staphylococcus aureus NCTC 10442 assessed as reduction in bacterial growth; format: functional
# Escherichia coli = assay: Antibacterial activity against Escherichia coli ATCC25922 assessed as reduction in bacterial growth; format: functional
# [4] = Hemolytic activity in rabbit erythrocytes assessed as concentration required to cause 50% hemolysis; format: ADME, cell-based, Oryctolagus cuniculus, Erythrocyte
# Staphylococcus aureus [5] = assay: Induction of drug resistance in Staphylococcus aureus ATCC29213 assessed as reduction in bacterial growth at 0.5 times MIC measured after 24 hr; format: functional, organism-based
# Staphylococcus aureus [6] = assay: Bactericidal activity against Staphylococcus aureus NCTC 10442 assessed as log reduction in bacterial growth at 4X MIC measured within 0.5 hr by time-kill kinetic assay; format: functional; conditions: time hrs <=0.5
# Staphylococcus aureus [7] = assay: In vivo antibacterial activity against Staphylococcus aureus ATCC29213 in mouse bacterial keratitis model assessed as log reduction in bacterial load in infected cornea at 5%,TOP after 24 hour infection; format: functional, organism-based
Structure (SMILES),MIC (Staphylococcus aureus [1]),MIC (Staphylococcus aureus [2]),MIC (Staphylococcus aureus [3]),MIC (Escherichia coli),HC50 [4],Activity (Staphylococcus aureus [5]),log reduction (Staphylococcus aureus [6]),Activity (Staphylococcus aureus [7])
COC(=O)[C@H](Cc1c[nH]cn1)NC(=O)Cc1cn(C/C=C(\C)CCC=C(C)C)c2ccccc12,> 50 mg/L,> 50 mg/L,> 50 mg/L,> 100 mg/L,> 200 µg/mL,–,–,–
CC(C)=CCC/C(C)=C/Cn1cc(CC(=O)N[C@@H](CCCNC(=N)N)C(N)=O)c2ccccc21,3.12 mg/L,3.12 mg/L,3.12 mg/L,25 mg/L,119 µg/mL,–,–,–
CCCCCCCCCCn1cc(CC(=O)NCCN(CCN)CCN)c2ccccc21,1.56 mg/L,1.56 mg/L,1.56 mg/L,12.5 mg/L,95.9 µg/mL,–,–,–
CC(C)=CCC/C(C)=C/Cn1cc(CC(=O)NCCCN)c2ccccc21,12.5 mg/L,6.25 mg/L,12.5 mg/L,12.5 mg/L,178 µg/mL,–,–,–
COC(=O)[C@H](CCCNC(=N)N)NC(=O)[C@H](CCCNC(=N)N)NC(=O)[C@H](CCCNC(=N)N)NC(=O)Cc1cn(C/C=C(\C)CCC=C(C)C)c2ccccc12,3.12 mg/L,1.56 mg/L,1.56 mg/L,50 mg/L,> 200 µg/mL,–,–,–
NC[C@H]1O[C@H](O[C@H]2[C@H](O)[C@@H](O[C@H]3O[C@H](CO)[C@@H](O)[C@H](N)[C@H]3O)[C@H](N)C[C@@H]2N)[C@H](O)[C@@H](O)[C@@H]1O [KANAMYCIN],–,–,–,6.25 mg/L,–,–,–,–
CC(C)=CCC/C(C)=C/Cn1cc(CC(=O)NCCN(CCN)CCN)c2ccccc21,1.56 mg/L,1.56 mg/L,1.56 mg/L,25 mg/L,208 µg/mL,–,–,–
CCCCN(CCCC)CCCNC(=O)Cc1cn(C/C=C(\C)CCC=C(C)C)c2ccccc12,3.12 mg/L,3.12 mg/L,3.12 mg/L,> 100 mg/L,72.3 µg/mL,–,–,–
CC(C)=CCn1cc(CC(=O)NCCCN)c2ccccc21,> 50 mg/L,> 50 mg/L,> 50 mg/L,> 100 mg/L,> 200 µg/mL,–,–,–
CC(C)=CCn1cc(CC(=O)N[C@@H](CCCNC(=N)N)C(N)=O)c2ccccc21,> 50 mg/L,> 50 mg/L,> 50 mg/L,> 100 mg/L,> 200 µg/mL,–,–,–
CC(C)=CCC/C(C)=C/Cn1cc(CC(=O)NCCCNC(=N)N)c2ccccc21,1.56 mg/L,1.56 mg/L,1.56 mg/L,12.5 mg/L,733 µg/mL,–,–,–
CCn1cc(C(=O)O)c(=O)c2cc(F)c(N3CCNCC3)cc21,–,–,–,–,–,Active,–,–
CC(C)=CCn1cc(CC(=O)NCCCNC(=N)N)c2ccccc21,50 mg/L,50 mg/L,50 mg/L,> 100 mg/L,> 200 µg/mL,–,–,–
COC(=O)[C@H](CCCNC(=N)N)NC(=O)Cc1cn(CC=C(C)C)c2ccccc12,50 mg/L,50 mg/L,50 mg/L,> 100 mg/L,> 200 µg/mL,–,–,–
COC(=O)[C@H](CCCNC(=N)N)NC(=O)Cc1cn(C/C=C(\C)CCC=C(C)C)c2ccccc12,3.12 mg/L,3.12 mg/L,3.12 mg/L,12.5 mg/L,58.8 µg/mL,–,–,–
CCOC(=O)Cc1cn(C/C=C(\C)CCC=C(C)C)c2ccccc12,> 50 mg/L,> 50 mg/L,> 50 mg/L,> 100 mg/L,> 200 µg/mL,–,–,–
CC(C)=CCC/C(C)=C/Cn1cc(CC(=O)N[C@@H](CCCNC(=N)N)C(=O)N[C@@H](CCCNC(=N)N)C(N)=O)c2ccccc21,3.12 mg/L,3.12 mg/L,3.12 mg/L,50 mg/L,> 200 µg/mL,–,–,–
COC(=O)[C@H](CCCNC(=N)N)NC(=O)[C@H](CCCNC(=N)N)NC(=O)Cc1cn(C/C=C(\C)CCC=C(C)C)c2ccccc12,3.12 mg/L,3.12 mg/L,1.56 mg/L,50 mg/L,> 200 µg/mL,–,–,–
C=CCCCCCn1cc(CC(=O)NCCN(CCN)CCN)c2ccccc21,12.5 mg/L,12.5 mg/L,25 mg/L,> 50 mg/L,140 µg/mL,–,–,–
CC(C)=CCC/C(C)=C/Cn1cc(CC(=O)NCCCN(C)C)c2ccccc21,6.25 mg/L,3.12 mg/L,6.25 mg/L,12.5 mg/L,55.1 µg/mL,–,–,–
CCOC(=O)Cc1c[nH]c2ccccc12,> 50 mg/L,> 50 mg/L,> 50 mg/L,> 100 mg/L,> 200 µg/mL,–,–,–
CC(C)=CCC/C(C)=C/Cn1cc(CC(=O)NCCCN2CCCC2)c2ccccc21,6.25 mg/L,6.25 mg/L,6.25 mg/L,50 mg/L,47.6 µg/mL,–,–,–
CN[C@H](CC(C)C)C(=O)N[C@H]1C(=O)N[C@@H](CC(N)=O)C(=O)N[C@H]2C(=O)N[C@H]3C(=O)N[C@H](C(=O)N[C@H](C(=O)O)c4cc(O)cc(O)c4-c4cc3ccc4O)[C@H](O)c3ccc(c(Cl)c3)Oc3cc2cc(c3O[C@@H]2O[C@H](CO)[C@@H](O)[C@H](O)[C@H]2O[C@H]2C[C@](C)(N)[C@H](O)[C@H](C)O2)Oc2ccc(cc2Cl)[C@H]1O [VANCOMYCIN],0.78 mg/L,1.56 mg/L,1.56 mg/L,–,–,–,0.5 log10 CFU/mL,Active
